Species: Rattus norvegicus
Test: Open TG-GATES - Regimen: Daily Repeat
Assay type: toxicity, organism-based, Sprague-Dawley
Set-up: regimen Daily Repeat, gender Male, age 6 weeks
Conditions: in vivo, po, route gavage; for APTT / Bas / Eos / Fbg / Hb / Ht / Lym / MCH / MCHC / MCV / Mono / Neu / PT / Plat / RBC / Ret / WBC: tissue Blood; for KIDNEY_L / KIDNEY_R / KIDNEY_TOTAL: tissue Kidney; for LIVER: tissue Liver; for A/G / ALP / ALT / AST / BUN / CRE / Ca / Cl / DBIL / GLC / IP / K / LDH / Na / PL / RALB / TBIL / TC / TG / TP / gamma-GTP: tissue Plasma
[1] = 0 mg/kg, 72 h, dose level Control, time 3 day
[2] = 0 mg/kg, […], dose level Control, time 7 day
[3] = 0 mg/kg, […], dose level Control, time 14 day
[4] = 0 mg/kg, […], dose level Control, time 28 day
[5] = 1 mg/kg, 72 h, dose level Middle, time 3 day

CN1C(C(=O)Nc2ccccn2)=C(O)c2sc(Cl)cc2S1(=O)=O [LORNOXICAM]
TERMINAL_BW [1]: 242.5 g
APTT [1]: 20.7 s
Bas [1]: 0.4%
Eos [1]: 1%
Fbg [1]: 223.4 mg/dL
Hb [1]: 12.9 g/dL
Ht [1]: 38.6%
Lym [1]: 79%
MCH [1]: 21 pg
MCHC [1]: 33.5%
MCV [1]: 62.6 fL
Mono [1]: 2.6%
Neu [1]: 16.2%
PT [1]: 11.7 s
Plat [1]: 126.1 x10_4/uL
RBC [1]: 617 x10_4/ul
Ret [1]: 6.1%
WBC [1]: 110.2 x10_2/uL
KIDNEY_L [1]: 1 g
KIDNEY_R [1]: 1 g
KIDNEY_TOTAL [1]: 2.1 g
LIVER [1]: 10.9 g
A/G [1]: 1.7
ALP [1]: 907.8 IU/L
ALT [1]: 46.2 IU/L
AST [1]: 91.2 IU/L
BUN [1]: 14.4 mg/dL
CRE [1]: 0.4 mg/dL
Ca [1]: 10.6 mg/dL
Cl [1]: 104.2 meq/L
DBIL [1]: 0.094 mg/dL
GLC [1]: 222.6 mg/dL
IP [1]: 6.8 mg/dL
K [1]: 4.1 meq/L
LDH [1]: 253.8 IU/L
Na [1]: 141.6 meq/L
PL [1]: 145.8 mg/dL
RALB [1]: 3.5 g/dL
TBIL [1]: 0.1 mg/dL
TC [1]: 74.2 mg/dL
TG [1]: 97.6 mg/dL
TP [1]: 5.6 g/dL
gamma-GTP [1]: 1.2 IU/L
TERMINAL_BW [2]: 279.8 g
TERMINAL_BW [3]: 335.2 g
TERMINAL_BW [4]: 380.8 g
APTT [2]: 20.1 s
Bas [2]: 0.6%
Eos [2]: 0.8%
Fbg [2]: 230.2 mg/dL
Hb [2]: 13.8 g/dL
Ht [2]: 40.8%
Lym [2]: 82%
MCH [2]: 20.7 pg
MCHC [2]: 33.7%
MCV [2]: 61.4 fL
Mono [2]: 2.2%
Neu [2]: 13.8%
PT [2]: 11.4 s
Plat [2]: 132.2 x10_4/uL
RBC [2]: 664.6 x10_4/ul
Ret [2]: 4.8%
WBC [2]: 106.9 x10_2/uL
APTT [3]: 21.1 s
Bas [3]: 0.6%
Eos [3]: 1%
Fbg [3]: 221.2 mg/dL
Hb [3]: 14 g/dL
Ht [3]: 41%
Lym [3]: 82%
MCH [3]: 20.3 pg
MCHC [3]: 34%
MCV [3]: 59.6 fL
Mono [3]: 2.4%
Neu [3]: 14.2%
PT [3]: 11.5 s
Plat [3]: 121.8 x10_4/uL
RBC [3]: 687.4 x10_4/ul
Ret [3]: 3.7%
WBC [3]: 100 x10_2/uL
APTT [4]: 21.4 s
Bas [4]: 0.6%
Eos [4]: 1.2%
Fbg [4]: 223.4 mg/dL
Hb [4]: 15.8 g/dL
Ht [4]: 45.2%
Lym [4]: 81.6%
MCH [4]: 20.1 pg
MCHC [4]: 35%
MCV [4]: 57.6 fL
Mono [4]: 1.8%
Neu [4]: 14.2%
PT [4]: 11.7 s
Plat [4]: 108.5 x10_4/uL
RBC [4]: 784.8 x10_4/ul
Ret [4]: 2%
WBC [4]: 101.8 x10_2/uL
KIDNEY_L [2]: 1.2 g
KIDNEY_R [2]: 1.2 g
KIDNEY_TOTAL [2]: 2.4 g
KIDNEY_L [3]: 1.3 g
KIDNEY_R [3]: 1.3 g
KIDNEY_TOTAL [3]: 2.6 g
KIDNEY_L [4]: 1.4 g
KIDNEY_R [4]: 1.3 g
KIDNEY_TOTAL [4]: 2.7 g
LIVER [2]: 13 g
LIVER [3]: 14.5 g
LIVER [4]: 14.4 g
A/G [2]: 1.7
ALP [2]: 1004.8 IU/L
ALT [2]: 33.2 IU/L
AST [2]: 68.4 IU/L
BUN [2]: 14 mg/dL
CRE [2]: 0.4 mg/dL
Ca [2]: 10.8 mg/dL
Cl [2]: 102.8 meq/L
DBIL [2]: 0.1 mg/dL
GLC [2]: 206 mg/dL
IP [2]: 6.7 mg/dL
K [2]: 4 meq/L
LDH [2]: 206 IU/L
Na [2]: 140.4 meq/L
PL [2]: 150 mg/dL
RALB [2]: 3.6 g/dL
TBIL [2]: 0.2 mg/dL
TC [2]: 70.8 mg/dL
TG [2]: 132.8 mg/dL
TP [2]: 5.7 g/dL
gamma-GTP [2]: 1.2 IU/L
A/G [3]: 1.5
ALP [3]: 781.8 IU/L
ALT [3]: 35.6 IU/L
AST [3]: 66.6 IU/L
BUN [3]: 15.4 mg/dL
CRE [3]: 0.4 mg/dL
Ca [3]: 10.7 mg/dL
Cl [3]: 104.4 meq/L
DBIL [3]: 0.096 mg/dL
GLC [3]: 195 mg/dL
IP [3]: 6.9 mg/dL
K [3]: 4 meq/L
LDH [3]: 196.4 IU/L
Na [3]: 141.2 meq/L
PL [3]: 148.6 mg/dL
RALB [3]: 3.5 g/dL
TBIL [3]: 0.2 mg/dL
TC [3]: 72.8 mg/dL
TG [3]: 118.4 mg/dL
TP [3]: 5.8 g/dL
gamma-GTP [3]: 0.8 IU/L
A/G [4]: 1.4
ALP [4]: 637.4 IU/L
ALT [4]: 33.6 IU/L
AST [4]: 67.4 IU/L
BUN [4]: 15.8 mg/dL
CRE [4]: 0.5 mg/dL
Ca [4]: 10.1 mg/dL
Cl [4]: 103.8 meq/L
DBIL [4]: 0.1 mg/dL
GLC [4]: 198.2 mg/dL
IP [4]: 6.1 mg/dL
K [4]: 4 meq/L
LDH [4]: 173.2 IU/L
Na [4]: 141.6 meq/L
PL [4]: 142.8 mg/dL
RALB [4]: 3.6 g/dL
TBIL [4]: 0.2 mg/dL
TC [4]: 67.6 mg/dL
TG [4]: 148.2 mg/dL
TP [4]: 6.1 g/dL
gamma-GTP [4]: 1.2 IU/L
TERMINAL_BW [5]: 239.1 g
APTT [5]: 18.8 s
Bas [5]: 0.8%
Eos [5]: 0.8%
Fbg [5]: 276 mg/dL
Hb [5]: 11.8 g/dL
Ht [5]: 35.5%
Lym [5]: 69.8%
MCH [5]: 21 pg
MCHC [5]: 33.2%
MCV [5]: 63.4 fL
Mono [5]: 3.8%
Neu [5]: 24.4%
PT [5]: 11.3 s
Plat [5]: 122.1 x10_4/uL
RBC [5]: 561.4 x10_4/ul
Ret [5]: 6.3%
WBC [5]: 144.7 x10_2/uL
KIDNEY_L [5]: 1.1 g
KIDNEY_R [5]: 1.1 g
KIDNEY_TOTAL [5]: 2.2 g
LIVER [5]: 11.7 g
A/G [5]: 1.4
ALP [5]: 872.4 IU/L
ALT [5]: 37.2 IU/L
AST [5]: 65 IU/L
BUN [5]: 12 mg/dL
CRE [5]: 0.4 mg/dL
Ca [5]: 10.4 mg/dL
Cl [5]: 104.4 meq/L
DBIL [5]: 0.098 mg/dL
GLC [5]: 220.2 mg/dL
IP [5]: 7.4 mg/dL
K [5]: 4.5 meq/L
LDH [5]: 198.6 IU/L
Na [5]: 140.8 meq/L
PL [5]: 150 mg/dL
RALB [5]: 3 g/dL
TBIL [5]: 0.2 mg/dL
TC [5]: 74 mg/dL
TG [5]: 154 mg/dL
TP [5]: 5.2 g/dL
gamma-GTP [5]: 1.6 IU/L
TERMINAL_BW (1 mg/kg, […], dose level Middle, time 7 day): 275.8 g
